Test results from patent publication US20230263757A1, “DISINFECTING WIPE KIT FOR CENTRAL VENOUS ACCESS DEVICES” (SterileCare Inc., priority 2022, published 2023).

Columns and labels:
Proteus mirabilis ON153 [1] = experiment: FBEC index, checkerboard on biofilms; assay type: cell-based; settings: for biofilm eradication concentration in combination (FBEC): EDTA + ethanol
Method: (§4) In step (4), microtiter plates are incubated at 37° C. for 24 h. then (6), after incubation, the bacterial and fungal cells were dislodged from the pegs into the recovery medium described above.
(§5) Three 10-μL aliquots, for a total of 30 μL from each well of recovery medium, were spotted on MH agar plates and incubated for 24 h at 37° C. […] The FBEC determination is a modification of the FICI.

E. coli SK2 = experiment: MBC/MFC determination; assay type: cell-based, Escherichia coli; settings: alone
Method: (§1) An assay was made using a minimum inhibitory concentration (MIC) and minimum bactericidal concentration (MBC) and minimum fungicidal concentration (MFC) determination. The MIC was determined by the micro broth dilution method in 96-well plates. Serial two-fold dilutions of tetrasodium EDTA (from 2% to 0.015%), ethanol (from 50% to 0.1%) and chlorhexidine HCl (from 100 μg/mL to 0.025 μg/mL) were prepared in MH broth with a final volume of 90 μL per well. A 10 μL containing 1×10^5 bacterial cells or 2×10^3 fungal cells were added to each well. The inoculated plates were covered with a lid, sealed with Parafilm, and incubated for 24 h at 37° C. with slight rocking on a tilting platform shaker. After incubation, the optical density at 600 nm (OD 600) of the cultures in each well was measured using an xMark™ Microplate Absorbance Spectrophotometer (Bio-Rad). […] MBCs and MFCs were determined by transferring 100 μL from each well with no apparent growth onto appropriate agar plates, followed by incubation for 24 h at 37° C.

[2] = tested on: Pseudomonas aeruginosa SK1; experiment: MBEC assay, 48-h biofilm, 24 h exposure; assay type: cell-based
Method: (§2) A biofilm cultivation cell composition was provided. This fifth composition was created using an MBEC Assay® biofilm inoculator, consisting of a polystyrene lid with 96 downward-protruding pegs and a corresponding base used to grow biofilms. A standardized inoculum was diluted in an appropriate biofilm growth medium to achieve a viable cell count of 1.5×10^6 CFU/mL of bacterial cells or 5×10^5 CFU/mL of fungal cells. Then, 150 μL of this inoculum was transferred into each appropriate well, and the peg lids were inserted into the microtiter plates. The plates were sealed with Parafilm and were incubated at optimum temperature for 48 h with slight rocking for bacteria and shaking at 200 rpm for fungal strains. After incubation, the peg lid was removed from the base and rinsed twice with sterile phosphate-buffered saline (PBS) for 2 min to remove loosely attached non-sessile cells. Before the antimicrobial challenge, the pegs in column 1 (n=8) were considered the biofilm growth control; these pegs were removed from the lids, placed into 200 μL of recovery medium, and analyzed for starting biofilm cell numbers as described below. The rinsed pegs were placed into new 96-well plates containing two-fold dilutions of antimicrobials such as tetrasodium EDTA (4%-0.0125%), ethanol (100%-0.2%), and chlorhexidine HCl (100 μg/mL-0.4 μg/mL) in 200 μL of suitable biofilm growth medium per well and incubated at optimum temperature for 24 h. After the antimicrobial challenge, the pegs were rinsed twice with sterile PBS for 2 min and placed into a new 96-well plate containing 200 μL of recovery medium. The recovery plates were sealed with Parafilm, and biofilm cells were dislodged from the pegs by sonication for 30 min with a Branson 3510 bath sonicator. The biofilm cells in the recovery medium were serially diluted, and a drop dilution assay was performed to enumerate the viable cells. MBEC values were determined as the minimum concentration of antimicrobials that yielded a viable cell count at or lower than the 125 CFU/mL detection limit.

Candida albicans SK4b [3] = experiment: MBEC assay, 48-h biofilm, 24 h exposure; assay type: cell-based
Method: as §2

[4] = tested on: Staphylococcus epidermidis SK9; experiment: MBEC assay, 48-h biofilm, 24 h exposure; assay type: cell-based
Method: as §2

Proteus mirabilis ON153 [5] = experiment: MIC, micro broth dilution; assay type: cell-based; settings: alone
Method: as §1

[6] = tested on: Pseudomonas aeruginosa SK1; experiment: MIC, micro broth dilution; assay type: cell-based; settings: alone
Method: as §1

[7] = tested on: Staphylococcus aureus ON89; experiment: MIC, micro broth dilution; assay type: cell-based; settings: alone
Method: as §1

[8] = tested on: Stenotrophomonas maltophilia ON17; experiment: MIC, micro broth dilution; assay type: cell-based; settings: alone
Method: as §1

Candida albicans SK4b [9] = experiment: MIC, micro broth dilution; assay type: cell-based; settings: alone
Method: as §1

[10] = tested on: Staphylococcus epidermidis ON170; experiment: MIC, micro broth dilution; assay type: cell-based; settings: alone
Method: as §1

Escherichia coli ON29 [11] = experiment: MIC, micro broth dilution; assay type: cell-based; settings: alone
Method: as §1

Serratia marcescens SK2 [12] = experiment: MIC, micro broth dilution; assay type: cell-based; settings: alone
Method: as §1

C. albicans ON47 [13] = experiment: FBEC index, checkerboard on biofilms; assay type: cell-based, Candida albicans; settings: for biofilm eradication concentration in combination (FBEC): EDTA + ethanol
Method: as §4, §5

Candida albicans SK4b [14] = experiment: FBEC index, checkerboard on biofilms; assay type: cell-based; settings: for biofilm eradication concentration in combination (FBEC): EDTA + ethanol
Method: as §4, §5

C. albicans ON47 [15] = experiment: MBEC assay, 48-h biofilm, 24 h exposure; assay type: cell-based, Candida albicans
Method: as §2

MRSA ON184 = experiment: MIC, micro broth dilution; assay type: cell-based, S. aureus; settings: alone
Method: as §1

S. epidermidis SK9 = experiment: MIC, micro broth dilution; assay type: cell-based, Staphylococcus epidermidis; settings: alone
Method: as §1

Proteus mirabilis ON153 [16] = experiment: Checkerboard titration, FICI; assay type: cell-based; settings: for concentration in combination: EDTA + ethanol
Method: (§3) A fourth composition and solution included tetrasodium EDTA with ethanol or chlorhexidine HCl. This fourth composition and solution were created using checkerboard titration methods using micro broth dilution in 96-well microtiter plates. The concentrations of antimicrobials used were based on previously determined MIC values. Briefly, 200 μL, of two-fold dilutions of tetrasodium EDTA and ethanol or chlorhexidine HCl were prepared in MH or MH II broth with standardized cell suspension. […] Microtiter plates were incubated at 37° C. for 24 h, and the results were analyzed. Each test was performed in duplicate and included a growth control without adding any antimicrobials.

[17] = tested on: Pseudomonas aeruginosa SK1; experiment: Checkerboard titration, FICI; assay type: cell-based; settings: for concentration in combination: EDTA + ethanol
Method: as §3

[18] = tested on: Staphylococcus aureus ON89; experiment: Checkerboard titration, FICI; assay type: cell-based; settings: for concentration in combination: EDTA + ethanol
Method: as §3

[19] = tested on: Stenotrophomonas maltophilia ON17; experiment: Checkerboard titration, FICI; assay type: cell-based; settings: for concentration in combination: EDTA + ethanol
Method: as §3

Candida albicans SK4b [20] = experiment: Checkerboard titration, FICI; assay type: cell-based; settings: for concentration in combination: EDTA + ethanol
Method: as §3

[21] = tested on: Staphylococcus epidermidis ON170; experiment: Checkerboard titration, FICI; assay type: cell-based; settings: for concentration in combination: EDTA + ethanol
Method: as §3

Escherichia coli ON29 [22] = experiment: Checkerboard titration, FICI; assay type: cell-based; settings: for concentration in combination: EDTA + ethanol
Method: as §3

Serratia marcescens SK2 [23] = experiment: Checkerboard titration, FICI; assay type: cell-based; settings: for concentration in combination: EDTA + ethanol
Method: as §3

SMILES	biofilm eradication concentration in combination (FBEC) (Proteus mirabilis ON153 [1])	MBC/MFC (E. coli SK2)	MBEC [2]	MBEC (Candida albicans SK4b [3])	MBEC [4]	MIC (Proteus mirabilis ON153 [5])	MIC [6]	MIC [7]	MIC [8]	MIC (Candida albicans SK4b [9])	MIC [10]	MIC (Escherichia coli ON29 [11])	MIC (Serratia marcescens SK2 [12])	biofilm eradication concentration in combination (FBEC) (C. albicans ON47 [13])	biofilm eradication concentration in combination (FBEC) (Candida albicans SK4b [14])	MBEC (C. albicans ON47 [15])	MIC (MRSA ON184)	MIC (S. epidermidis SK9)	concentration in combination (Proteus mirabilis ON153 [16])	concentration in combination [17]	other results
O=C([O-])CN(CCN(CC(=O)[O-])CC(=O)[O-])CC(=O)[O-].[Na+].[Na+].[Na+].[Na+] [EDTA, tetrasodium EDTA]	0.125 % w/v	0.5 % w/v	4 % w/v	1 % w/v	2 % w/v	1 % w/v	0.25 % w/v	0.063 % w/v	0.063 % w/v	1 % w/v	0.063 % w/v	0.5 % w/v	2 % w/v	0.125 % w/v	0.125 % w/v	1 % w/v	0.063 % w/v	0.063 % w/v	0.5 % w/v	0.031 % w/v	EDTA biofilm eradication concentration in combination (FBEC) (Proteus mirabilis ON153 [1]; EDTA + chlorhexidine HCl): 0.125 % w/v; EDTA biofilm eradication concentration in combination (FBEC) (C. albicans ON47 [13]; EDTA + chlorhexidine HCl): 0.031 % w/v; EDTA biofilm eradication concentration in combination (FBEC) (Candida albicans SK4b [14]; EDTA + chlorhexidine HCl): 0.063 % w/v; EDTA concentration in combination (Proteus mirabilis ON153 [16]; EDTA + chlorhexidine HCl): 0.063 % w/v; EDTA concentration in combination ([17]; EDTA + chlorhexidine HCl): 0.5 % w/v; EDTA concentration in combination ([18]; EDTA + chlorhexidine HCl): 0.008 % w/v; concentration in combination [18]: 0.015 % w/v; EDTA concentration in combination ([19]; EDTA + chlorhexidine HCl): 0.015 % w/v; concentration in combination [19]: 0.031 % w/v; EDTA concentration in combination (Candida albicans SK4b [20]; EDTA + chlorhexidine HCl): 0.063 % w/v; concentration in combination (Candida albicans SK4b [20]): 0.25 % w/v; EDTA concentration in combination ([21]; EDTA + chlorhexidine HCl): 0.063 % w/v; concentration in combination [21]: 0.015 % w/v; EDTA concentration in combination (Escherichia coli ON29 [22]; EDTA + chlorhexidine HCl): 0.008 % w/v; concentration in combination (Escherichia coli ON29 [22]): 0.25 % w/v; EDTA concentration in combination (Serratia marcescens SK2 [23]; EDTA + chlorhexidine HCl): 0.063 % w/v; concentration in combination (Serratia marcescens SK2 [23]): 0.5 % w/v
CCO [Ethanol, ethanol]	6.25 % w/v	25 % w/v	12.5 % w/v	12.5 % w/v	12.5 % w/v	6.25 % w/v	3.125 % w/v	6.25 % w/v	6.25 % w/v	6.25 % w/v	3.125 % w/v	12.5 % w/v	6.25 % w/v	1.6 % w/v	1.6 % w/v	12.5 % w/v	6.25 % w/v	6.25 % w/v	1.6 % w/v	3.125 % w/v	concentration in combination [18]: 0.4 % w/v; concentration in combination [19]: 0.4 % w/v; concentration in combination (Candida albicans SK4b [20]): 1.6 % w/v; concentration in combination [21]: 0.4 % w/v; concentration in combination (Escherichia coli ON29 [22]): 3.125 % w/v; concentration in combination (Serratia marcescens SK2 [23]): 3.125 % w/v
